Test results published in paper PMC4855798, “Cell-bound lipases from Burkholderia sp. ZYB002: gene sequence analysis, expression, enzymatic characterization, and 3D structural model” (BMC Biotechnology, 2016).

Tested on: T1, LipC24
T1 construct: mature LipC24 coding region (ORF 438 aa), His6-tag, E. coli Origami2 (DE3), co-expressed with foldase LipB lacking N-terminal 70 residues; purified by HisTrap and DEAE, single 45 kDa band; counterpart in B. cepacia J2315 is BCAM2764
Experiment: spectrophotometric 4-nitrophenol release, non-linear regression
Assay type: biochemical, Burkholderia sp. ZYB002
Details: 40 °C, 20 mmol/L Na2HPO4-NaH2PO4 buffer pH 7.5; 0.1-1.8 mmol/L substrate

Structure (SMILES): CCCCCCCCCCCCCC(=O)Oc1ccc([N+](=O)[O-])cc1 [4-nitrophenyl myristate]
- Km: 370 ± 70 µM
